Test results: patent US4863748A, “Dietary products and uses comprising methylsulfonylmethane” (priority 1986, dated 1989)

Key:
[1] = system: pain and inflammation of musculoskeletal system disorders; experiment: Pain associated with systemic inflammatory disorders (Example 15); format: in vivo, human
Source text: subject two, presented chronic arthritis with painful involvement of the lower trunk. Over the years they had evaluated most new antiarthritic, analgesic drugs with disappointing results.

[2] = system: pain in the mid-back region; experiment: Acute pain, comparison with codeine, urinary calculi, subject three (Example 32); format: in vivo, human; details: 1.5 g in warm water, oral
Experimental: Methylsulfonylmethane was compared with codeine for the control of pain in subject three, a person who awakened in the early morning with excruciating pain in the mid-back region, so intense it was difficult to pin-point a specific region. […] Analgesic requirements were 1/2 grain codeine with aspirin every two hours. […] The intense pain returned. The subject was given 1.5 g of methylsulfonylmethane dissolved in 1/2 glass of warm water. At 0.5 hours after taking the methylsulfonylmethane, the pain had essentially disappeared. Methylsulfonylmethane (1.5 g/day) was continued until the afternoon of the third day, when X-ray confirmed that the calculi yet obstructed the ureter. Subject was switched again to codeine with aspirin (1/2 grain×2 hours). […] Methylsulfonylmethane was again administered (1.5 g×4 hours). On day 5 the calculi passed. Recovery was uneventful, requiring neither codeine, methylsulfonylmethane,nor a urinary tract antimicrobial.

[3] = system: t-lymphocyte dependent and t-lymphocyte independent immune responses; experiment: Humoral immune responses in mice (Example 37); format: in vivo, balb/c strain mice; details: 3% by wt. in water
Experimental: Laboratory mice genetically predisposed to lymphoma development were selected for this test. Humoral immunity participation was measured as was the effect of methylsulfonylmethane on an animal's life span. One set of 12 mice were maintained as controls. The treated (T) group received identical treatment except for their water given ad lib, which contained 3% by wt. of methylsulfonylmethane in solution.
By month 4 of this test, all controls were dead, due to lymphoma development. […] These normal balb/c strain mice of group T were tested for t-lymphocyte dependent (t-d) and t-lymphocyte independent (t-i) immune responses. […] Based on these preliminary results, at high enough daily rates of ingestion, methylsulfonylmethane stimulates humoral immunity thereby providing protection to otherwise lethal spontaneous mouse lymphomas.

nail growth = experiment: Nail growth in dogs (Example 6); format: in vivo, dog (female labradors); details: 5% in drinking water, 45 days
Source text: Rate of nail growth is an indication of the overall health of an animal. To determine the effect of methylsulfonylmethane on nail growth, two litter mate female labradors, age 8.5 months, were maintained in side by side straw bedded cages. Before any testing, the front paws of each dog were embedded in partially set plaster of paris, allowing the animals to exert full body weight, thereby obtaining good clear impressions of paw pads and nail length.
Each dog was fed Purina dog chow and water ad lib for 45 days. One of the dogs, (Animal A) had no ration change and the other (Animal B) was supplied only with water containing 5% of methylsulfonylmethane dissolved therein. After 45 days, plaster impressions of the front paws of each dog were again taken. Once the plaster had fully hardened the pre- and post-testing castings of each animal were compared. The straw bedding protected both animals from normal nail wear. On visual examination, the nails of Animal B, the animal receiving methylsulfonylmethane in its water, were obviously longer. Upon comparing the castings it was seen that Animal B had nails that averaged about 1/8 inch greater length than those of Animal A.

[4] = system: bilateral fibrinous pleuritis; experiment: Bilateral fibrinous pleuritis in a breeding mare (Examples 4 and 24); format: in vivo, horse (mare)
Experimental: A valuable breeding mare, treated for a respiratory infection developed bilateral fibrinous pleuritis, easily heard with auscultation of the chest. After six weeks therapy with a combination of conventional antibiotics and anti-inflammatory drugs, there was little if any improvement. Conventional therapy was terminated. Methylsulfonylmethane was added to the diet of this refractory case (24 g, twice daily, over a period of 5 days). This was the only special treatment given. […] Auscultation of the chest was negative.

intractable pain = experiment: Pain in humans (Example 31); format: in vivo, human
Source text: The following patients suffering from intractable pain were given methylsulfonylmethane orally in the amounts and for the period of time set forth in the table below: […]

[5] = system: emphysema and lung tumor respiratory deficiency; experiment: Treatment of lung dysfunction (Example 29); format: in vivo, human
Experimental: Seven human subjects with respiratory deficiency were given methylsulfonylmethane by the oral route in amounts ranging from 250-1,500 mg/day, in single or divided units. Five presented emphysema believed associated with cigarette smoking. Two presented tumor involvement of the lung with additional function impairment due to pleural fluid accumulation.
Two of five subjects with emphysema had prior cardiorespiratory function tests and follow-up evaluations at six and eight weeks after starting a course of 500 mg/day orally of methylsulfonylmethane.
Prior to and during the test period, at approximately two-week intervals, all presenting emphysema were required to walk a measured distance compatible with their physical resources. […] The lung cavity fluid problem of each subject disappeared during the first months of the test period.

[6] = 24 g twice daily, 5 days (Example 4)

## CS(C)(=O)=O [methylsulfonylmethane]
[1]; about 100 up to about 5,000 mg per day
  relief of pain and inflammation, musculoskeletal system disorders: substantial and long lasting relief
[1]; oral 50-500 mg per day
  relief in migraine sufferers: substantial relief
[1]; subject two, 1/4-1/2 tsp. daily
  pain after about 16 months: substantially pain-free
[1]; subject two, chronic arthritis, 1/2 tsp. daily
  pain relief by the end of the second week: almost total pain relief
[2]
  time after which the pain had essentially disappeared: 0.5 h
[3]
  primary IgM and secondary IgG responses to sheep erythrocytes (SRBC): significantly enhancement
  tnp-ficoll response: significant suppression
Nail growth
  greater average nail length vs Animal A: about 1/8
[4]; 2×12 gm/day in diet, five days (Example 24)
  response of pleuritis: responded favorably (normal breathing, negative ausculation of the chest)
[4]; [6]
  auscultation of the chest: negative
  breathing at fifth day: returned to normal
  pain at fifth day: no longer demonstrated pain
[4]; followed two years after treatment (Example 4)
  state over the next two years: normal and healthy
Intractable pain; A. B., 69 F, Deg. Arth., 0.5 bid × 18 months
  Results: pain relief
Intractable pain; B. A., 63 F, Deg. Arth., 0.25 g qid
  Results: pain relief
Intractable pain; C. A., 62 M, Bursitis Chronic, 0.25 g bid × 3 months
  Results: pain relief: 50%
Intractable pain; D. B., 35 M, Low back pain, 0.5 g qid × 9 months
  Results: pain relief
Intractable pain; I. B., 62 F, Multiple Sclerosis, 0.5 bid × 18 months
  Results: muscle pain: reduction
Intractable pain; M. A., 55 F, Rh. Arth., 0.25 g bid × 9 months
  Results: pain relief
Intractable pain; N. B., 62 M, Tendonitis, 0.25 g qid
  Results: reduced pain
Intractable pain; P. A., 61 F, Deg. Arth., 1 g 4×/day × 19 months
  Results: pain relief
[5]; 500 mg/day orally, two emphysema subjects, six and eight weeks
  cardiorespiratory function values, in particular arterial oxygen tension: both had values in the normal range
[5]; emphysema sufferers, alone or with 1000 mg ascorbic acid/day, within 2-4 weeks
  comfortable walking distance: at least doubled
[5]; two subjects with lung tumors
  alertness, comfort and outlook: more alert, comfortable, and with a better outlook and attitude
[5]; two subjects with lung tumors, first months
  lung cavity fluid problem: disappeared
